Values joined by “and” are separate entries in the source; they are usually repeats but may differ in a detail not shown here. Identical values can stand only once. “Also recorded” adds a separate entry of the source.

For series [1] the following is noted: anesthetic induction doses; cited from earlier work.
Another series has as its system human subjects. The note with it: intravenous infusions; cited from earlier work.
The nature of series [2]: Plasma propofol pharmacokinetics in Beagle dogs after intravenous, subcutaneous or rectal prodrug. Format: in vivo. The procedure:
Upon administration, the test prodrug is converted in the body into propofol, its pharmacologically active metabolite. The pharmacokinetic profile, i.e. the blood plasma concentration of propofol derived from the test prodrug, was assessed in a separate experiment. Three male Beagle dogs (8.7-10.9 kg) received intravenous, subcutaneous, or rectal doses of the prodrug (see Tab. 1, below). Blood samples were taken at pre-dose, 2 (only for intravenous and subcutaneous), 5, 15, 30 minutes, 1, 1.5, 2, 3, 4, 6, and 8 hrs after administration of the test prodrug. Blood samples were centrifuged to obtain plasma and stored frozen until analysis. The outcome of this experiment is depicted in the following Table I: […]

Where [3] appears, read: rats, intravenous infusion over 10 minutes, 5-40 mg/kg.
[4] abbreviates: Beagle dog 46, rectal, 16.8 mg/kg prodrug, first suppository expelled, second given, nominal dose used.
The mark [5] stands for this setting: Beagle dog 47, rectal, 15.7 mg/kg prodrug.
[6] abbreviates: Beagle dog 48, rectal, 18.4 mg/kg prodrug.
Setting [7] is: Beagle dogs, i.v., 16 mg/kg prodrug, average of 3 dogs.
Setting [8] is: Beagle dogs, i.v., 16 mg/kg prodrug, individual dogs 46, 47, 48, disodium salt, 16 mg/kg.
Where [9] appears, read: Beagle dogs, rectal, 15.7-18.4 mg/kg prodrug, average of 3 dogs.
Setting [10] is: Beagle dogs, subcut., 16 mg/kg prodrug, average of 3 dogs.
The mark [11] stands for this setting: Beagle dogs, subcut., 16 mg/kg prodrug, individual dogs 46, 47, 48, disodium salt, 16 mg/kg.

Method for Sprague-Dawley rats: FIG. 2 illustrates the sedative/anesthetic effects of various doses of the experimental compound when administered via the intravenous route.
For comparison, an additional two animals received a subcutaneous injection of propofol (80 mg/kg) in its commercially available liquid emulsion formulation. For further comparison, the above-described pharmacological effects of subcutaneous administration of the tested prodrug were compared with those caused by an intravenous infusion: Under halothane anesthesia, young adult rats received femoral vein catheters which were exteriorized and attached to a liquid swivel via a protectant spring. About 20 minutes after catheterization, and after full behavioral recovery from halothane anesthesia, each animal was attached to an electronic infusion pump and was administered vehicle, or 5, 10, 20, 30, or 40 mg/kg of the test prodrug (n=2 per dose) in 1 ml total volume by gradual constant-rate intravenous infusion over 10 minutes. Behavioral rating as described above began immediately following the end of infusion.

For `CC(C)c1cccc(C(C)C)c1O` [propofol, 2,6-diisopropylphenol], the sedative effect entry in the series on Sprague-Dawley rats (rats, subcutaneous, 80 mg/kg, commercially available liquid emulsion formulation) is recorded as “only very mild or no sedative effects; also recorded: none or only very mild sedation”. The “patients with respiratory consequences, including reduction in tidal volume and apnea” value in series [1] was “up to 83%”.

For `CC(C)c1cccc(C(C)C)c1OCOP(=O)([O-])[O-].[Na+].[Na+]` [O-phosphonooxymethyl propofol disodium salt], in the series with human subjects, the “potency of plasma propofol in suppressing EEG activity and causing a hypnotic effect, versus plasma propofol from infusions of propofol itself” value is “significantly more potent”. The “duration of effects relative to subcutaneous administration” value with Sprague-Dawley rats (setting [3]) is recorded as “shorter duration compared to subcutaneous administration”. The “onset of sedated behavior relative to subcutaneous injection” value in the series with Sprague-Dawley rats (setting [3]) was “even more rapidly than after subcutaneous-injection”. Also, the “onset of sedated behavior after dosing” value with Sprague-Dawley rats (rats, single subcutaneous injection, 50-300 mg/kg) was 5 to 10 min. Moreover, the duration of sedation in the series on Sprague-Dawley rats (rats, subcutaneous, 50 mg/kg) lay within 1 to 1.5 h. Further, in the series with Sprague-Dawley rats (rats, subcutaneous, 50 mg/kg), the “sedative effect compared to vehicle” value is recorded as “mild to moderate sedation”. The “behavioral effect following sedation” value in the series with Sprague-Dawley rats (rats, subcutaneous, 100, 200 and 300 mg/kg dose groups) is reported as “loss of consciousness”. In addition, the “duration of loss of consciousness” value with Sprague-Dawley rats (rats, subcutaneous, two highest dose groups (200 and 300 mg/kg)) is “more than two hours”. Also, the “time after administration until plateau effect is reached” value in the series with Sprague-Dawley rats (subcutaneous administration) is 10 to 15 min. Moreover, the “duration for which plateau effect is maintained” value in the series with Sprague-Dawley rats (subcutaneous administration, depending on dose) was “up to about thirty minutes to two hours or longer”. The “AUCLast of plasma propofol” value was 471.4 ng·h/mL in series [2] (setting [4]); 204.5 ng·h/mL in series [2] (setting [5]); 46.7 ng·h/mL in series [2] (setting [6]); 1728 ± 256.0 ng·h/mL in series [2] (setting [7]); 1776 ng·h/mL and 1956 ng·h/mL and 1451 ng·h/mL in series [2] (setting [8]); 240.9 ± 214.7 ng·h/mL in series [2] (setting [9]). The “AUCLast of plasma propofol” value in series [2] (setting [10]) was 1322 ± 557.7 ng·h/mL; in series [2] (setting [11]), 1781 ng·h/mL and 1484 ng·h/mL and 701.6 ng·h/mL. The “Cmax of plasma propofol” value is 0.22 µg/mL in series [2] (setting [4]); 0.17 µg/mL in series [2] (setting [5]); 0.09 µg/mL in series [2] (setting [6]); 3.84 ± 1.19 µg/mL in series [2] (setting [7]); 2.57 µg/mL and 4.93 µg/mL and 4.01 µg/mL in series [2] (setting [8]); 0.16 ± 0.06 µg/mL in series [2] (setting [9]). Moreover, the “Cmax of plasma propofol” value in series [2] (setting [10]) was 0.39 ± 0.09 µg/mL; in series [2] (setting [11]), 0.46 µg/mL and 0.42 µg/mL and 0.29 µg/mL. The “Tmax of plasma propofol” value was found to be 60 min in series [2] (setting [4]); 15 min in series [2] (setting [5]); 15 min in series [2] (setting [6]); 1.8 min in series [2] (setting [7]); 1.8 min in series [2] (Beagle dogs, i.v., 16 mg/kg prodrug, individual dogs 46, 47, 48); 30 ± 25.8 min in series [2] (setting [9]). Besides, the “Tmax of plasma propofol” value was 60 ± 30 min in series [2] (setting [10]); 90 min and 60 min and 30 min in series [2] (setting [11]).

The record behind these values is patent publication US20080214508A1, “Methods of Administering Water-Soluble Prodrugs of Propofol” (MGI GP, INC., priority 2004, published 2008).
